Legend:
[1] = target: T1, β-1,4-Galactosyltransferase 7 (β4GalT7) (Homo sapiens, UniProt Q9UBV7); experiment: HPLC assay of GalXylNap formation from XylNap and UDP-Gal; assay type: biochemical
T1 construct: gene B4GALT7
T1 sequence (Q9UBV7 81-327): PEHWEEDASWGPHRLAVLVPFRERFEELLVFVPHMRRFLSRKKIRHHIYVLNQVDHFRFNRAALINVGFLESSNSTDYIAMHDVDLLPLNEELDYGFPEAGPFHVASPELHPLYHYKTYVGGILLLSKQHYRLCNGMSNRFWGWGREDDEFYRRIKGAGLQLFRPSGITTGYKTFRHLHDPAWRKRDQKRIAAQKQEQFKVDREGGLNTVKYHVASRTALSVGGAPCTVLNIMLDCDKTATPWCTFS
Description: HPLC assay of GalXylNap formation from XylNap and UDP-Gal on β-1,4-Galactosyltransferase 7 (β4GalT7) | display concentration-dependent inhibition of β4GalT7.

[2] = target: T1, β-1,4-Galactosyltransferase 7 (β4GalT7); experiment: STD NMR; assay type: binding

SMILES	IC50 [1] [µM]	STD NMR [2]
O=P(O)(O)CP(=O)(O)OCCO[C@@H]1COC(O)[C@H](O)[C@H]1O (mixture of isomers) [compound 4, 4-O-(2-(Methylene-diphosphoryl)-hydroxyethyl)-α/β-D-xylopyranose]	188	–
CC(=O)N[C@H]1[C@@H](OP(=O)(O)OP(=O)(O)OC[C@H]2O[C@@H](n3ccc(=O)[nH]c3=O)[C@H](O)[C@@H]2O)O[C@H](CO)[C@H](O)[C@@H]1O [UDP-GalNAc]	–	β4GalT7 tolerates an N-acetyl group at C2 of the sugar residue
